Results: patent US4002623A, “Anti-inflammatory 1-[3-(dialkylamino)propyl]-2-acylaminobenzimidazoles and 2-acylamino-3-[3-(dialkylamino)-propyl]imidazo[4,5-b]pyridines” (Pfizer Inc., priority 1974, dated 1977)
Where two headings read alike, the source gives them in different places.

Assay: adjuvant arthritis screen (Walz et al.), swelling of the non-injected left hind foot on Day 16
Assay type: in vivo, male inbred Lewis rats
Settings: Rattus norvegicus, 384 h, daily day -1 through day 15, read-out: Activity Percent Inhibition; for inhibition in vivo at 20 mg/kg: 20 mg./kg. po; for inhibition in vivo at 33 mg/kg: 33 mg./kg. ip
Excerpt: The adjuvant arthritis test described by Walz et al., Ann. Rheum. Dis., 30, 303 (1971) was selected as the method of choice for the determination of the extent of which the novel compounds of the present invention are therapeutically effective as anti-inflammatory agents. Adjuvant arthritis is a crippling deformity in rats resulting from diffuse connective tissue involvement. It is considered by some authorities to be the best available experimental animal model of human rheumatoid arthritis because of its strong clinical and pathological similarities to the human disease and because it can be effectively treated with known anti-arthritic drugs. In this test, lesions resembling those of human rheumatoid arthritis are induced by the injection of complete Freund's adjuvant into one hind leg of a rat. A vigorous inflammatory response occurs in the injected hind leg and reaches its greatest size in about four days. This primary response is followed by the development of a second inflammatory response, appearing about 12-16 days post-injection, that occurs in the uninjected hind leg. While the compounds of the invention are capable of inhibiting the degree of inflammation in both legs, the inhibition of swelling in the uninjected leg at 16 days is considered to be the more meaningful measure of antiarthritic activity.
The adjuvant arthritis screen as described by Walz et al. (Ann. Rheum. Dis., 30: 303 (1971), was used to evaluate the above prepared compounds.
The screen is conducted using male inbred Lewis rats weighing approximately 250 gm. The animals are dosed with drug beginning on day- 1 and continuing daily through day 15. On Day 0, the subplanter surface of the right hind paw is injected with 0.1cc of a 1% suspension of Mycobacterium butyricum (Freunds adjuvant) in Primol (Esso). The swelling of the non-injected left hind foot on Day 16, resulting from immune response to adjuvant, was determined for dosed animals and controls. The foot volume is measured by immersing the paw to the anatomical hairline into a mercury reservoir which is connected to a Statham pressure transducer and a recording device. The results are expressed as % inhibition calculated according to the following equation: [formula] The results obtained are as follows for [drawing 22] where Z is --N(CH3)2 and X is carbon: […]

Row | Compound | inhibition in vivo at 33 mg/kg [%] | also measured
1 | COc1ccc(C(=O)Nc2nc3cc(S(=O)(=O)N(C)C)ccc3n2CCCN2CCN(C)CC2)cc1 [4-Methoxyphenyl; SO2 N(CH3)2; H; drawing 24] |  | inhibition in vivo at 20 mg/kg: 27%
2 | CN1CCN(CCCn2c(NC(=O)c3ccc(C(F)(F)F)cc3)nc3cc(C(F)(F)F)ccc32)CC1 [4-Trifluoromethylphenyl; CF3; H; drawing 24] | 71 | inhibition in vivo at 10 mg/kg (10 mg./kg. po): 28%
3 | Cc1ccc2c(c1)nc(NC(=O)c1ccc(C(F)(F)F)cc1)n2CCCN1CCN(C)CC1 [4-Trifluoromethylphenyl; CH3; H; drawing 24] |  | inhibition in vivo at 20 mg/kg: 35%
4 | CN1CCN(CCCn2c(NC(=O)c3ccc(C(F)(F)F)cc3)nc3cc(Cl)ccc32)CC1 [4-Trifluoromethylphenyl; Cl; H; drawing 24, 1-[3-(4-methyl-1-piperazinyl)propyl]-2-(4-trifluoromethylbenzamido)-5-chlorobenzimidazole] | 72 | inhibition in vivo at 10 mg/kg (10 mg./kg. po): 38%
5 | Cc1ccc2nc(NC(=O)c3ccc(C(F)(F)F)cc3)n(CCCN3CCN(C)CC3)c2c1 [4-Trifluoromethylphenyl; H; CH3; drawing 24] |  | inhibition in vivo at 20 mg/kg: 50%
6 | O=C(Nc1nc2ccccc2n1CCCN1CCOCC1)c1ccc(C(F)(F)F)cc1 [4-Trifluoromethylphenyl; H; H; drawing 23] | 35 | 
7 | CN1CCN(CCCn2c(NC(=O)c3ccc(C(F)(F)F)cc3)nc3ccccc32)CC1 [4-Trifluoromethylphenyl; H; H; drawing 24] | 77 | inhibition in vivo at 20 mg/kg: 51%
8 | CN1CCN(CCCn2c(NC(=O)c3ccc(C(F)(F)F)cc3)nc3cccnc32)CC1 [4-Trifluoromethylphenyl; H; H; drawing 25] |  | inhibition in vivo at 20 mg/kg: 14%
9 | O=C(Nc1nc2ccccc2n1CCCN1CCCCC1)c1ccc(C(F)(F)F)cc1 [4-Trifluoromethylphenyl; H; H; drawing 26, 1-[3-(1-piperidinyl)propyl]-2-(4-trifluoromethylbenzamido)benzimidazole] | 79 | 
10 | O=C(Nc1nc2ccccc2n1CCCN1CCN(Cc2ccccc2)CC1)c1ccc(C(F)(F)F)cc1 [4-Trifluoromethylphenyl; H; H; drawing 27, 2-(4-trifluoromethylbenzamido)-1-[3-(4-benzyl-1-piperazinyl)-propyl]benzimidazole] |  | inhibition in vivo at 10 mg/kg (10 mg./kg. ip): 47%
11 | O=C(Nc1nc2ccccc2n1CCCN1CCNCC1)c1ccc(C(F)(F)F)cc1 [4-Trifluoromethylphenyl; H; H; drawing 28, 2-(4-trifluoromethylbenzamido)-1-[3-(1-piperazinyl)propyl]benzimidazole] |  | inhibition in vivo at 10 mg/kg (10 mg./kg. ip): 28%
12 | COc1ccc2c(c1)nc(NC(=O)c1ccc(C(F)(F)F)cc1)n2CCCN1CCN(C)CC1 [4-Trifluoromethylphenyl; OCH3; H; drawing 24] | 69 | 
13 | CN1CCN(CCCn2c(NC(=O)c3ccc(C(C)(C)C)cc3)nc3ccccc32)CC1 [4-t-Butylphenyl; H; H; drawing 24] | 26 | 
14 | CC(C)(C)CC(=O)Nc1nc2ccccc2n1CCCN1CCOCC1 [(CH3)3 CCH2; H; H; drawing 23] | 13 | 
15 | CCCCCCCCCC(=O)Nc1nc2ccccc2n1CCCN1CCN(C)CC1 [CH3 (CH2)8; H; H; drawing 24] |  | inhibition in vivo at 20 mg/kg: 45%
16 | COCC(=O)Nc1nc2ccccc2n1CCCN(C)C [CH3 OCH2; H; H; Z = N(CH3)2] | 32 | 

Row | Compound | inhibition in vivo at 33 mg/kg [%] | also measured
17 | COCC(=O)Nc1nc2ccccc2n1CCCN1CCOCC1 [CH3 OCH2; H; H; drawing 23] | 21 | 
18 | CN1CCN(CCCn2c(NC(=O)C3CCC3)nc3ccccc32)CC1 [Cyclobutyl; H; H; drawing 24] | 34 | 
19 | O=C(Nc1nc2ccccc2n1CCCN1CCCCC1)c1ccco1 [Furyl; H; H; drawing 26] | 12 | 
20 | CN1CCN(CCCn2c(NC(=O)c3ccccc3)nc3cc(C(F)(F)F)ccc32)CC1 [Phenyl; CF3; H; drawing 24] | 29 | 
21 | Cc1cc2nc(NC(=O)c3ccccc3)n(CCCN3CCN(C)CC3)c2cc1C [Phenyl; CH3; CH3; drawing 24, 1-[3-(4-methyl-1-piperazinyl)propyl]-2-benzamido-5,6-dimethylbenzimidazole] |  | inhibition in vivo at 20 mg/kg: 31%
22 | CN1CCN(CCCn2c(NC(=O)c3ccccc3)nc3cc(Cl)ccc32)CC1 [Phenyl; Cl; H; drawing 24] | 41 | 
23 | Cc1ccc2nc(NC(=O)c3ccccc3)n(CCCN3CCN(C)CC3)c2c1 [Phenyl; H; CH3; drawing 24] |  | inhibition in vivo at 20 mg/kg: 23%
24 | CN(C)CCCn1c(NC(=O)c2ccccc2)nc2ccccc21 [Phenyl; H; H; Z = N(CH3)2] | 8 | 
25 | O=C(Nc1nc2ccccc2n1CCCN1CCOCC1)c1ccccc1 [Phenyl; H; H; drawing 23] | 15 | 
26 | O=C(Nc1nc2ccccc2n1CCCN1CCN(Cc2ccccc2)CC1)c1ccccc1 [Phenyl; H; H; drawing 27] |  | inhibition in vivo at 10 mg/kg (10 mg./kg. ip): 44%
27 | O=C(Nc1nc2ccccc2n1CCCN1CCNCC1)c1ccccc1 [Phenyl; H; H; drawing 28] |  | inhibition in vivo at 10 mg/kg (10 mg./kg. ip): 19%
28 | COc1ccc2c(c1)nc(NC(=O)c1ccccc1)n2CCCN1CCN(C)CC1 [Phenyl; OCH3; H; drawing 24] | 27 | 
29 | CN1CCN(CCCn2c(NC(=O)c3ccccc3)nc3cc(S(=O)(=O)N(C)C)ccc32)CC1 [Phenyl; SO2 N(CH3)2; H; drawing 24] |  | inhibition in vivo at 20 mg/kg: 32%
30 | O=C(C=Cc1ccccc1)Nc1nc2ccccc2n1CCCN1CCCCC1 [Styryl; H; H; drawing 26] | 33 | 
31 | CN1CCN(CCCn2c(NC(=O)c3ccc(-c4ccccc4)cc3)nc3ccccc32)CC1 [p-Phenylphenyl; H; H; drawing 24] | 46 | 
